Test results taken from ChEMBL document CHEMBL3885861, “Open TG-GATES”.

Organism: Rattus norvegicus
Assay: Open TG-GATES - Regimen: Daily Repeat
Assay type: toxicity, organism-based, Sprague-Dawley
Parameters: regimen Daily Repeat, gender Male, age 6 weeks
Settings: in vivo, po, 100 mg/kg, route gavage, dose level High; for APTT / Bas / Eos / Fbg / Hb / Ht / Lym / MCH / MCHC / MCV / Mono / Neu / PT / Plat / RBC / Ret / WBC: tissue Blood; for KIDNEY_L / KIDNEY_R / KIDNEY_TOTAL: tissue Kidney; for LIVER: tissue Liver; for ALP / ALT / AST / BUN / CRE / Ca / DBIL / GLC / IP / K / LDH / Na / PL / RALB / TBIL / TC / TG / TP / gamma-GTP: tissue Plasma

## CSc1ccc2c(c1)N(CCC1CCCCN1C)c1ccccc1S2 (centres undefined) [THIORIDAZINE]
72 h, time 3 day
  TERMINAL_BW: 219.1 g
  APTT: 15.9 s
  Bas: 0%
  Eos: 1%
  Fbg: 196.2 mg/dL
  Hb: 13.9 g/dL
  Ht: 41.9%
  Lym: 81.4%
  MCH: 21.4 pg
  MCHC: 33.2%
  MCV: 64.4 fL
  Mono: 5.4%
  Neu: 12.2%
  PT: 11.9 s
  Plat: 117.8 x10_4/uL
  RBC: 651.2 x10_4/ul
  Ret: 6.1%
  WBC: 136.4 x10_2/uL
  KIDNEY_L: 1 g
  KIDNEY_R: 1 g
  KIDNEY_TOTAL: 2 g
  LIVER: 12.2 g
  ALP: 887.2 IU/L
  ALT: 40 IU/L
  AST: 63.2 IU/L
  BUN: 19.4 mg/dL
  CRE: 0.5 mg/dL
  Ca: 10.9 mg/dL
  DBIL: 0.062 mg/dL
  GLC: 187.6 mg/dL
  IP: 9.4 mg/dL
  K: 4.5 meq/L
  LDH: 158.8 IU/L
  Na: 139.8 meq/L
  PL: 164 mg/dL
  RALB: 4 g/dL
  TBIL: 0.2 mg/dL
  TC: 84 mg/dL
  TG: 92.4 mg/dL
  TP: 5.9 g/dL
  gamma-GTP: 1.6 IU/L
[…], time 7 day
  TERMINAL_BW: 252.6 g
  APTT: 16.5 s
  Bas: 0%
  Eos: 0.2%
  Fbg: 213 mg/dL
  Hb: 14.3 g/dL
  Ht: 43.2%
  Lym: 80%
  MCH: 21.3 pg
  MCHC: 33.1%
  MCV: 64.2 fL
  Mono: 7.6%
  Neu: 12%
  PT: 12.3 s
  Plat: 98.4 x10_4/uL
  RBC: 672 x10_4/ul
  Ret: 4.6%
  WBC: 144.8 x10_2/uL
  KIDNEY_L: 1.2 g
  KIDNEY_R: 1.2 g
  KIDNEY_TOTAL: 2.3 g
  LIVER: 12.3 g
  ALP: 928.2 IU/L
  ALT: 34.2 IU/L
  AST: 64 IU/L
  BUN: 16 mg/dL
  CRE: 0.5 mg/dL
  Ca: 11.2 mg/dL
  DBIL: 0.008 mg/dL
  GLC: 199.8 mg/dL
  IP: 9.7 mg/dL
  K: 4.6 meq/L
  LDH: 100.2 IU/L
  Na: 141.6 meq/L
  PL: 166.8 mg/dL
  RALB: 3.8 g/dL
  TBIL: 0.4 mg/dL
  TC: 79 mg/dL
  TG: 132.4 mg/dL
  TP: 5.7 g/dL
  gamma-GTP: 1.4 IU/L
[…], time 14 day
  TERMINAL_BW: 299.8 g
  APTT: 17.8 s
  Bas: 0%
  Eos: 0.8%
  Fbg: 242.8 mg/dL
  Hb: 15.2 g/dL
  Ht: 45.7%
  Lym: 75%
  MCH: 20.8 pg
  MCHC: 33.3%
  MCV: 62.5 fL
  Mono: 6%
  Neu: 18.2%
  PT: 11.9 s
  Plat: 112.1 x10_4/uL
  RBC: 733.4 x10_4/ul
  Ret: 4.4%
  WBC: 145.8 x10_2/uL
  KIDNEY_L: 1.3 g
  KIDNEY_R: 1.3 g
  KIDNEY_TOTAL: 2.6 g
  LIVER: 13.6 g
  ALP: 741.8 IU/L
  ALT: 30.4 IU/L
  AST: 61.2 IU/L
  BUN: 16.4 mg/dL
  CRE: 0.6 mg/dL
  Ca: 10.9 mg/dL
  DBIL: 0.02 mg/dL
  GLC: 178.2 mg/dL
  IP: 9.2 mg/dL
  K: 5.2 meq/L
  LDH: 189 IU/L
  Na: 142.8 meq/L
  PL: 152.2 mg/dL
  RALB: 4 g/dL
  TBIL: 0.4 mg/dL
  TC: 80.2 mg/dL
  TG: 83.4 mg/dL
  TP: 6.1 g/dL
  gamma-GTP: 1.4 IU/L
[…], time 28 day
  TERMINAL_BW: 349.4 g
  APTT: 17.7 s
  Bas: 0%
  Eos: 0.6%
  Fbg: 225.4 mg/dL
  Hb: 15.6 g/dL
  Ht: 46.6%
  Lym: 80.4%
  MCH: 19.3 pg
  MCHC: 33.4%
  MCV: 57.7 fL
  Mono: 5.6%
  Neu: 13.8%
  PT: 12.5 s
  Plat: 92.7 x10_4/uL
  RBC: 808.8 x10_4/ul
  Ret: 2.5%
  WBC: 142.8 x10_2/uL
  KIDNEY_L: 1.4 g
  KIDNEY_R: 1.4 g
  KIDNEY_TOTAL: 2.8 g
  LIVER: 15.1 g
  ALP: 742.4 IU/L
  ALT: 35.4 IU/L
  AST: 55.8 IU/L
  BUN: 18.6 mg/dL
  CRE: 0.6 mg/dL
  Ca: 10.7 mg/dL
  DBIL: 0.006 mg/dL
  GLC: 176.4 mg/dL
  IP: 7.7 mg/dL
  K: 4.9 meq/L
  LDH: 115.4 IU/L
  Na: 142.6 meq/L
  PL: 160 mg/dL
  RALB: 4.1 g/dL
  TBIL: 0.2 mg/dL
  TC: 80.2 mg/dL
  TG: 111.4 mg/dL
  TP: 6.4 g/dL
  gamma-GTP: 1.6 IU/L
